# Measured values as given in patent US20060135494A1, “Methods of treating injuries of the nervous system associated with hemorrhage” (priority 2002, published 2006).
# What was measured:
# Type in all cases: in vivo
# [1] = test system: caspase-3-like proteases; assay: DEVD-specific caspase activity in ICH rat brain tissue
# Excerpt: All animals received humane care in compliance with the institute's guidelines as outlined in “Guide for the Care and Use of Laboratory Animals” prepared by the National Academy of Sciences and published by the National Institutes of Health (NIH publication no. 86-23, revised 1985). Female Sprague-Dawley rats (250-300 grams (g); Harlan Sprague-Dawley, Inc., Indianapolis, Ind.) were anesthesized with an intramuscular injection of a mixture of ketamine and xylazine and set in supine in a Kopf headholder. The right carotid artery, external and internal branches, was exposed and the distal end of the external carotid freed and retracted to line with the internal carotid. […]
# Caspase activation was determined in dissected brain tissue from the ispilateral and corresponding contralateral areas. […] General caspase activity was evaluated by enzymatic cleavage of chromophore p-nitroanilide (pNA) from the substrate N-acetyl-Asp-Glu-Val-Asp-pNA (DEVD-pNA; Sigma Chemical Co.). […] The reaction mixtures were incubated at 37° C. for 1 hour, and the formation of pNA was measured at 405 nm using a 96-well plate reader. Protein concentrations were determined using the Bio-Rad protein assay kit (Bio-Rad Laboratories, Hercules, Calif.) according to the manufacturer's specifications.
# [2] = test system: Bcl-2, Bcl-xL, Bax; assay: Bcl-2 family protein (immunoblot) and mRNA (RT-PCR) in ICH rat brain; settings: TUDCA 10-200 mg/kg bw, ipsilateral hemisphere
# Excerpt: All animals received humane care in compliance with the institute's guidelines as outlined in “Guide for the Care and Use of Laboratory Animals” prepared by the National Academy of Sciences and published by the National Institutes of Health (NIH publication no. 86-23, revised 1985). Female Sprague-Dawley rats (250-300 grams (g); Harlan Sprague-Dawley, Inc., Indianapolis, Ind.) were anesthesized with an intramuscular injection of a mixture of ketamine and xylazine and set in supine in a Kopf headholder. The right carotid artery, external and internal branches, was exposed and the distal end of the external carotid freed and retracted to line with the internal carotid. A PE-10 polyethylene tube (Becton-Dickinson, Sparks, Md.) was then introduced from the external into the internal carotid artery, and the former was ligated to hold the tube. TUDCA (Calbiochem-Novabiochem Corp., San Diego, Calif.) was dissolved in phosphate buffer, pH 7.4 at […] milligrams per milliliter (mg/ml). Saline or TUDCA solution (1 milliliter per kilogram body weight (ml/kg bw)) were injected directly into the internal carotid artery, within 5 minutes. Different concentrations of TUDCA (10, 50, 100, and 200 mg/kg bw) were administered 1 hour prior to, or 1, 3, and 6 hours after collagenase injection. The polyethylene tube was finally removed, the end of the external carotid artery cauterized, and the wound closed. To induce stroke injury, the animals were placed in a stereotaxic apparatus and ICH induced by collagenase infusion (Rosenberg et al., Stroke 1990;21:801-807 and Chesney et al., Stroke 1995;26:312-316). In brief, a midline incision was made through the scalp to expose the skull. […] (0.5 microliters per minute (μL/min)) of saline containing 0.5 unit (U) bacterial collagenase (type VII; Sigma Chemical Co., St. Louis, Mo.) was made stereotaxically into the striatum with a 10-μl Hamilton syringe at the following coordinates: 0.4 millimeter (mm) anterior and 3.0 mm lateral to bregma and 5.0 mm ventral to the cortical surface. Once the infusion was complete, the Hamilton syringe was left in place for 3 minutes. Body temperature was maintained at 37° C. with a CMA/150 temperature controller throughout the surgery. The rats recovered from surgery in a cage containing food and heated by an incandescent light bulb. Neurological testing was performed at 2 days after induction of ICH. The animals were then sacrificed, and the brains removed and frozen at −70° C. for either serial cryostat sectioning, or RNA and protein extraction. In a subset of animals, serum and brain samples were collected for bile acid analysis.
# Changes in Bcl-2 family expression were determined by RT-PCR. Total RNA was extracted from brain tissue using the TRIZOL reagent from Life Technologies, Inc. (Grand Island, N.Y.). For RT-PCR, 5 μg of total RNA was reverse-transcribed using oligo(dT) (IDT, Inc., Coralville, Iowa) and SUPERSCRIPT II reverse transcriptase (Life Technologies Inc.). Specific oligonucleotide primer pairs were incubated with cDNA template for PCR amplification using the Expand High Fidelity PCR System from Roche Diagnostics, GmbH. […] Amplified PCR products were analyzed by agarose gel electrophoresis and ethidium bromide staining. […]
# [3] = test system: NF-κB/IκBα protein complex; assay: Immunoblotting and immunohistochemistry of NF-κB/IκBα in ICH rat brain
# Excerpt: All animals received humane care in compliance with the institute's guidelines as outlined in “Guide for the Care and Use of Laboratory Animals” prepared by the National Academy of Sciences and published by the National Institutes of Health (NIH publication no. 86-23, revised 1985). Female Sprague-Dawley rats (250-300 grams (g); Harlan Sprague-Dawley, Inc., Indianapolis, Ind.) were anesthesized with an intramuscular injection of a mixture of ketamine and xylazine and set in supine in a Kopf headholder. The right carotid artery, external and internal branches, was exposed and the distal end of the external carotid freed and retracted to line with the internal carotid. A PE-10 polyethylene tube (Becton-Dickinson, Sparks, Md.) was then introduced from the external into the internal carotid artery, and the former was ligated to hold the tube. TUDCA (Calbiochem-Novabiochem Corp., San Diego, Calif.) was dissolved in phosphate buffer, pH 7.4 at 400 milligrams per milliliter (mg/ml). Saline or TUDCA solution (1 milliliter per kilogram body weight (ml/kg bw)) were injected directly into the internal carotid artery, within 5 minutes. […]
# Bcl-2 family, NF-κB, IκB, p-Akt, and p-Bad protein levels were determined from total protein homogenates separated by 12% sodium dodecyl sulfate polyacrylamide gel electrophoresis (SDS-PAGE). […]
smiles,measurement,setting,value
"C[C@H](CCC(=O)NCCS(=O)(=O)O)[C@H]1CC[C@H]2[C@@H]3[C@@H](O)C[C@@H]4C[C@H](O)CC[C@]4(C)[C@H]3CC[C@]12C [TUDCA, tauroursodeoxycholic acid]",caspase activity versus vehicle-injected animals,"[1]; 100 mg/kg bw TUDCA, time-course 1 hour before to 6 hours after collagenase",remained markedly lower
same,reduction of caspase activation in the lesioned hemisphere,[1]; 100 and 200 mg/kg bw TUDCA 1 hour before collagenase,45-60%
same,Bax protein,[2],returned to contralateral hemisphere values
same,"Bcl-XL mRNA (RT-PCR, words)",[2],decreased
same,Bcl-xL protein levels,[2],slightly diminished
same,"transcriptional activation of Bcl-2 (mRNA, RT-PCR, words)",[2],further increased
same,Bcl-2 protein levels,[2]; dose-response study,remained elevated
same,"NF-κB activation in the peri-ICH region (immunohistochemistry, words)","[3]; 100 mg/kg bw TUDCA, 2 days after ICH",markedly decreased
same,"IκBα protein level (Western blot, words)","[3]; increasing doses of TUDCA (10-200 mg/kg bw) 1 hour before collagenase, ipsilateral hemisphere",largely restored
